Results taken from US7022667B2, “O-derivatized nocathiacin derivatives” (Bristol-Myers Squibb Company, priority 2002, dated 2006).
In brackets after ≈: the same amount, converted by molar mass.

Assays:
Experiment in all cases: MIC, broth micro dilution assay (NCCLS)
Type in all cases: cell-based
[1] = tested on: Staphylococcus aureus A15090; details: Mueller-Hinton medium, 35° C., 18 hours
Description: (§1) The serial broth dilution method used Mueller-Hinton medium except for the Streptococcus pneumoniae which was tested in 50% Mueller-Hinton medium and 50% Todd Hewitt medium. The final bacterial inoculate contained approximately 5×10^5 cfu/well and was run on microtiter plates. The volume of each well was 100 μL and the plates were incubated at 35° C. for 18 hours in ambient air. The MIC was defined as the lowest drug concentration that prevented visible growth.

[2] = tested on: Enterococcus faecalis A20688; details: Mueller-Hinton medium, 35° C., 18 hours
Description: as §1

[3] = tested on: Streptococcus pneumoniae A28272; details: 50% Mueller-Hinton medium and 50% Todd Hewitt medium, 35° C., 18 hours
Description: as §1

Row | Structure (SMILES) | MIC (μg/mL) Staphylococcus aureus A15090 [1] | MIC (μg/mL) Enterococcus faecalis A20688 [2] | MIC (μg/mL) Streptococcus pneumoniae A28272 [3]
1 | C=C(NC(=O)c1csc(-c2nc3c(cc2OC)-c2nc(cs2)C(=O)NC(C(C)O)C(=O)NC(=C(C)OC)c2nc(cs2)C(=O)NC2c4nc(cs4)C(=O)NC(COC(=O)c4c5c6c(cccc6n4O)COC(=O)C(OC4CC(C)(O)C(N(C)C)C(C)O4)C2OC5)c2nc-3cs2)n1)C(N)=O (stereo not drawn) [Example 1] | 0.015 µg/mL (≈ 0.0103 µM) | 0.015 µg/mL (≈ 0.0103 µM) | 0.003 µg/mL (≈ 0.00207 µM)
2 | C=C(NC(=O)c1csc(-c2nc3c(cc2OCC(O)CO)-c2nc(cs2)C(=O)NC(C(C)O)C(=O)NC(=C(C)OC)c2nc(cs2)C(=O)NC2c4nc(cs4)C(=O)NC(COC(=O)c4c5c6c(cccc6n4O)COC(=O)C(OC4CC(C)(O)C(N(C)C)C(C)O4)C2OC5)c2nc-3cs2)n1)C(N)=O (stereo not drawn) [Example 3] | 1.0 µg/mL (≈ 0.662 µM) | 2.0 µg/mL (≈ 1.32 µM) | 0.25 µg/mL (≈ 0.165 µM)
3 | C=C(NC(=O)c1csc(-c2nc3c(cc2O)-c2nc(cs2)C(=O)NC(C(C)O)C(=O)NC(=C(C)OC)c2nc(cs2)C(=O)NC2c4nc(cs4)C(=O)NC(COC(=O)c4c5c6c(cccc6n4OC)COC(=O)C(OC4CC(C)(O)C(N(C)C)C(C)O4)C2OC5)c2nc-3cs2)n1)C(N)=O (stereo not drawn) [Example 6] | 0.03 µg/mL (≈ 0.0207 µM) | 0.125 µg/mL (≈ 0.0861 µM) | 0.003 µg/mL (≈ 0.00207 µM)
4 | C=C(NC(=O)c1csc(-c2nc3c(cc2O)-c2nc(cs2)C(=O)NC(C(C)O)C(=O)NC(=C(C)OC)c2nc(cs2)C(=O)NC2c4nc(cs4)C(=O)NC(COC(=O)c4c5c6c(cccc6n4OCCCS(=O)(=O)[O-])COC(=O)C(OC4CC(C)(O)C(N(C)C)C(C)O4)C2OC5)c2nc-3cs2)n1)C(N)=O.[Na+] (stereo not drawn) [Example 7] | 0.125 µg/mL | 0.125 µg/mL | 0.007 µg/mL
5 | C=C(NC(=O)c1csc(-c2nc3c(cc2O)-c2nc(cs2)C(=O)NC(C(C)O)C(=O)NC(=C(C)OC)c2nc(cs2)C(=O)NC2c4nc(cs4)C(=O)NC(COC(=O)c4c5c6c(cccc6n4OCC(N)=O)COC(=O)C(OC4CC(C)(O)C(N(C)C)C(C)O4)C2OC5)c2nc-3cs2)n1)C(N)=O (stereo not drawn) [Example 8] | 0.5 µg/mL (≈ 0.335 µM) | 0.25 µg/mL (≈ 0.167 µM) | 0.03 µg/mL (≈ 0.0201 µM)
6 | C=C(NC(=O)c1csc(-c2nc3c(cc2OCC(N)=O)-c2nc(cs2)C(=O)NC(C(C)O)C(=O)NC(=C(C)OC)c2nc(cs2)C(=O)NC2c4nc(cs4)C(=O)NC(COC(=O)c4c5c6c(cccc6n4OCC(N)=O)COC(=O)C(OC4CC(C)(O)C(N(C)C)C(C)O4)C2OC5)c2nc-3cs2)n1)C(N)=O (stereo not drawn) [Example 9] | 2.0 µg/mL (≈ 1.29 µM) | 4.0 µg/mL (≈ 2.58 µM) | 0.125 µg/mL (≈ 0.0806 µM)
7 | C=C(NC(=O)c1csc(-c2nc3c(cc2O)-c2nc(cs2)C(=O)NC(C(C)O)C(=O)NC(=C(C)OC)c2nc(cs2)C(=O)NC2c4nc(cs4)C(=O)NC(COC(=O)c4c5c6c(cccc6n4OCc4ccc(C(=O)OC6CCCCO6)cc4)COC(=O)C(OC4CC(C)(O)C(N(C)C)C(C)O4)C2OC5)c2nc-3cs2)n1)C(N)=O (stereo not drawn) [Example 10] | 0.5 µg/mL (≈ 0.302 µM) | 0.5 µg/mL (≈ 0.302 µM) | 0.015 µg/mL (≈ 0.00906 µM)
8 | C=C(NC(=O)c1csc(-c2nc3c(cc2O)-c2nc(cs2)C(=O)NC(C(C)O)C(=O)NC(=C(C)OC)c2nc(cs2)C(=O)NC2c4nc(cs4)C(=O)NC(COC(=O)c4c5c6c(cccc6n4OCc4ccc(C(=O)O)cc4)COC(=O)C(OC4CC(C)(O)C(N(C)C)C(C)O4)C2OC5)c2nc-3cs2)n1)C(N)=O (stereo not drawn) [Example 11] | 16 µg/mL (≈ 10.2 µM) | >128 µg/mL | 0.06 µg/mL (≈ 0.0382 µM)
9 | C=C(NC(=O)c1csc(-c2nc3c(cc2O)-c2nc(cs2)C(=O)NC(C(C)O)C(=O)NC(=C(C)OC)c2nc(cs2)C(=O)NC2c4nc(cs4)C(=O)NC(COC(=O)c4c5c6c(cccc6n4OCOP(=O)(O)O)COC(=O)C(OC4CC(C)(O)C(N(C)C)C(C)O4)C2OC5)c2nc-3cs2)n1)C(N)=O (stereo not drawn) [Example 12] | 0.25 µg/mL (≈ 0.162 µM) | 1.0 µg/mL (≈ 0.646 µM) | 0.015 µg/mL (≈ 0.00969 µM)
10 | C=C(NC(=O)c1csc(-c2nc3c(cc2O)-c2nc(cs2)C(=O)NC(C(C)O)C(=O)NC(=C(C)OC)c2nc(cs2)C(=O)NC2c4nc(cs4)C(=O)NC(COC(=O)c4c5c6c(cccc6n4OCCCl)COC(=O)C(OC4CC(C)(O)C(N(C)C)C(C)O4)C2OC5)c2nc-3cs2)n1)C(N)=O.Cl (stereo not drawn) [Example 13] | 0.015 µg/mL | 0.03 µg/mL | 0.003 µg/mL
11 | C=C(NC(=O)c1csc(-c2nc3c(cc2O)-c2nc(cs2)C(=O)NC(C(C)O)C(=O)NC(=C(C)OC)c2nc(cs2)C(=O)NC2c4nc(cs4)C(=O)NC(COC(=O)c4c5c6c(cccc6n4OCCC[N+](C)(C)C)COC(=O)C(OC4CC(C)(O)C(N(C)C)C(C)O4)C2OC5)c2nc-3cs2)n1)C(N)=O (stereo not drawn) [Example 14] | >128 µg/mL | 2.0 µg/mL | 0.5 µg/mL
12 | C=C(NC(=O)c1csc(-c2nc3c(cc2O)-c2nc(cs2)C(=O)NC(C(C)O)C(=O)NC(=C(C)OC)c2nc(cs2)C(=O)NC2c4nc(cs4)C(=O)NC(COC(=O)c4c5c6c(cccc6n4OC(=O)NCCCC)COC(=O)C(OC4CC(C)(O)C(N(C)C)C(C)O4)C2OC5)c2nc-3cs2)n1)C(N)=O (stereo not drawn) [Example 15] | ≦0.001 μg/mL | 0.03 µg/mL (≈ 0.0195 µM) | 0.007 µg/mL (≈ 0.00456 µM)
13 | C=C(NC(=O)c1csc(-c2nc3c(cc2O)-c2nc(cs2)C(=O)NC(C(C)O)C(=O)NC(=C(C)OC)c2nc(cs2)C(=O)NC2c4nc(cs4)C(=O)NC(COC(=O)c4c5c6c(cccc6n4OC(=O)NCCCN4CCN(C)CC4)COC(=O)C(OC4CC(C)(O)C(N(C)C)C(C)O4)C2OC5)c2nc-3cs2)n1)C(N)=O (stereo not drawn) [Example 16] | 0.003 µg/mL (≈ 0.00185 µM) | 0.003 µg/mL (≈ 0.00185 µM) | 0.0005 µg/mL (≈ 0.000308 µM)
14 | C=C(NC(=O)c1csc(-c2nc3c(cc2OC)-c2nc(cs2)C(=O)NC(C(C)O)C(=O)NC(=C(C)OC)c2nc(cs2)C(=O)NC2c4nc(cs4)C(=O)NC(COC(=O)c4c5c6c(cccc6n4OC)COC(=O)C(OC4CC(C)(O)C(N(C)C)C(C)O4)C2OC5)c2nc-3cs2)n1)C(N)=O (stereo not drawn) [Example 18] | 0.007 µg/mL (≈ 0.00478 µM) | 0.015 µg/mL (≈ 0.0102 µM) | 0.001 µg/mL (≈ 0.000682 µM)
15 | C=C(NC(=O)c1csc(-c2nc3c(cc2OCC(=O)OC)-c2nc(cs2)C(=O)NC(C(C)O)C(=O)NC(=C(C)OC)c2nc(cs2)C(=O)NC2c4nc(cs4)C(=O)NC(COC(=O)c4c5c6c(cccc6n4OCC(=O)OC)COC(=O)C(OC4CC(C)(O)C(N(C)C)C(C)O4)C2OC5)c2nc-3cs2)n1)C(N)=O (stereo not drawn) [Example 19] | 0.06 µg/mL (≈ 0.0379 µM) | 0.125 µg/mL (≈ 0.079 µM) | 0.003 µg/mL (≈ 0.0019 µM)
16 | C=C(NC(=O)c1csc(-c2nc3c(cc2OCC(=O)O)-c2nc(cs2)C(=O)NC(C(C)O)C(=O)NC(=C(C)OC)c2nc(cs2)C(=O)NC2c4nc(cs4)C(=O)NC(COC(=O)c4c5c6c(cccc6n4OCC(=O)O)COC(=O)C(OC4CC(C)(O)C(N(C)C)C(C)O4)C2OC5)c2nc-3cs2)n1)C(N)=O.O=C(O)C(F)(F)F (stereo not drawn) [Example 20] | 16 µg/mL | >128 µg/mL | 0.5 µg/mL
17 | C=C(NC(=O)c1csc(-c2nc3c(cc2OCOP(=O)([O-])O)-c2nc(cs2)C(=O)NC(C(C)O)C(=O)NC(=C(C)OC)c2nc(cs2)C(=O)NC2c4nc(cs4)C(=O)NC(COC(=O)c4c5c6c(cccc6n4OCOP(=O)([O-])O)COC(=O)C(OC4CC(C)(O)C(N(C)C)C(C)O4)C2OC5)c2nc-3cs2)n1)C(N)=O.[Na+].[Na+] (stereo not drawn) [Example 22] | 0.125 µg/mL | 0.25 µg/mL | 0.015 µg/mL
18 | C=C(NC(=O)c1csc(-c2nc3c(cc2O)-c2nc(cs2)C(=O)NC(C(C)O)C(=O)NC(=C(C)OC)c2nc(cs2)C(=O)NC2c4nc(cs4)C(=O)NC(COC(=O)c4c5c6c(cccc6n4OC(C)=O)COC(=O)C(OC4CC(C)(O)C(N(C)C)C(C)O4)C2OC5)c2nc-3cs2)n1)C(N)=O (stereo not drawn) [Example 23] | 0.03 µg/mL (≈ 0.0203 µM) | 0.25 µg/mL (≈ 0.169 µM) | 0.06 µg/mL (≈ 0.0406 µM)
19 | C=C(NC(=O)c1csc(-c2nc3c(cc2OC(C)=O)-c2nc(cs2)C(=O)NC(C(C)O)C(=O)NC(=C(C)OC)c2nc(cs2)C(=O)NC2c4nc(cs4)C(=O)NC(COC(=O)c4c5c6c(cccc6n4O)COC(=O)C(OC4CC(C)(O)C(N(C)C)C(C)O4)C2OC5)c2nc-3cs2)n1)C(N)=O.Cl (stereo not drawn) [Example 24] | 0.03 µg/mL | 0.015 µg/mL | 0.03 µg/mL
20 | C=C(NC(=O)c1csc(-c2nc3c(cc2OCCN2CCOCC2)-c2nc(cs2)C(=O)NC(C(C)O)C(=O)NC(=C(C)OC)c2nc(cs2)C(=O)NC2c4nc(cs4)C(=O)NC(COC(=O)c4c5c6c(cccc6n4OCCN4CCOCC4)COC(=O)C(OC4CC(C)(O)C(N(C)C)C(C)O4)C2OC5)c2nc-3cs2)n1)C(N)=O (stereo not drawn) [Example 26] | 1.0 µg/mL (≈ 0.601 µM) | 0.25 µg/mL (≈ 0.15 µM) | 0.03 µg/mL (≈ 0.018 µM)
21 | C=C(NC(=O)c1csc(-c2nc3c(cc2O)-c2nc(cs2)C(=O)NC(C(C)O)C(=O)NC(=C(C)OC)c2nc(cs2)C(=O)NC2c4nc(cs4)C(=O)NC(COC(=O)c4c5c6c(cccc6n4OCCN4CCOCC4)COC(=O)C(OC4CC(C)(O)C(N(C)C)C(C)O4)C2OC5)c2nc-3cs2)n1)C(N)=O.O=C(O)C(F)(F)F (stereo not drawn) [Example 27] | 0.25 µg/mL | 0.06 µg/mL | 0.015 µg/mL
